Experiments:
[1] = test system: Leptosphaeria nodorum (LEPTNO); experiment: In vitro fungitoxicity assay against Leptosphaeria nodorum in copper-minus and copper-plus liquid medium (growth inhibition, light scattering); assay type: cell-based; settings: Parastagonospora nodorum; compound 0.05 μg/mL, copper-minus medium, 72 h at 25° C.; read-out: LEPTNO % Inhn. Minus Copper Observed
Method: In vitro fungitoxicity assays against Leptosphaeria nodorum (LEPTNO) were conducted using the liquid growth medium described by Coursen and Sisler (American Journal of Botany 1960, 47, 541-549) except that copper micronutrient, normally included as CuSO4, was omitted. The medium, termed “copper-minus”, was prepared by dissolving 10 g glucose, 1.5 g K2HPO4, 2 g KH2PO4 and 1 g (NH4)2SO4 in 1 liter of deionized water and treating the solution with 0.5 g Chelex 100 resin (Bio-Rad Analytical grade, 50-100 mesh, sodium form, cat#142-2822) by stirring at room temperature for 1 h. MgSO4.7H2O (0.5 g) was added, and stirring was continued for a further hour. Trace elements (minus CuSO4), and vitamins described by Coursen and Sisler were added from concentrated stock solutions and the entire medium was sterilized by filtration. Medium containing copper was prepared by adding CuCl2.2H2O to the copper-minus medium at 20 μM. […]
LEPTNO was grown on potato dextrose agar in 9 cm diameter petri dishes for 7 days. […] Microtiter plates were inoculated with 100 μL of this spore suspension and the plates incubated at 25° C. for 72 h before assessing fungal growth by measuring light scattering in a NepheloStar plate reader. Growth inhibition was determined by comparing growth in the presence of test compound with growth in control wells lacking test compound. […]

Phytophthora capsici = experiment: In vitro fungitoxicity assay against Phytophthora capsici in copper-minus AS and copper-plus AS medium; assay type: cell-based; settings: CuCl2 50 uM without any test compound, across experiments
Method: In vitro fungitoxicity assays against Phytophthora capsici were conducted using the asparagine-sucrose (AS) medium described in Canadian Journal of Microbiology 1961, 7, 15-25, except that copper micronutrient, normally included as CuSO4, was omitted. The medium, termed “copper-minus AS”, was prepared by dissolving 2 g asparagine, 0.43 g KH2PO4, 0.3 g K2HPO4, 0.4 mL of a 0.5 mg/mL thiamine-HCl solution and 15 g sucrose in 1 liter of deionized water and treating the solution with 0.5 g Chelex 100 resin (Bio-Rad Analytical grade, 50-100 mesh, sodium form, cat#142-2822) by stirring at room temperature for 1 h. The pH was adjusted to 6.4, then MgSO4.7H2O (100 μg/mL), FeSO4.7H2O (1 μg/mL), CaCl2 (50 μg/mL), ZnSO4.7H2O (1 μg/mL), NaMoO4.2H2O (0.2 μg/mL) and MnCl2.4H2O (0.2 μg/mL) were added and the entire medium was sterilized by filtration. […]
Phytophthora capsici was grown on petri plates, 9 cm in diameter, containing 15 mL V-8 agar, pH 7.0, containing 200 mL V-8 juice, 4 g CaCO3, and 20 g agar per liter. […] Microtiter plates were inoculated with 100 μL of spore suspension and incubated at 25° C. for 48 h before assessing fungal growth by measuring light scattering in a NepheloStar plate reader. Growth inhibition was determined by comparing growth in the presence of test compound with growth in control wells lacking test compound. […]

Compound: O=C(N/N=C/c1cccc(F)c1O)c1ccccc1 [Compound 1]
- inhibition of growth at 0.05 µg/mL [1]: 4.4%

Compound: O.O.[Cl][Cu][Cl] [CuCl2, CuCl2.2H2O]
- % Inhn (copper chloride alone; printed in column Minus copper Observed) (Phytophthora capsici): 4.5 ± 7.9%

From patent US8455394B2 (priority 2009, dated 2013)
